# Key:
# Experiment in all cases: Antimicrobial activity, diffusion Agar technique
# Assay type in all cases: cell-based
# Settings in all cases: beyond the initial well diameter of 6 mm
# [1] = tested on: Aspergillus fumigatus (RCMB 02567)
# Method: (§1) The noble metal nanoparticles prepared by the present methods can be formulated into a composition effective as an antifungal and as an antibacterial agent (Gram positive and gram negative). […] The fungal and bacterial inhibition trial was conducted using the diffusion Agar technique. The data are expressed in the form of (M±S.D.): mean±standard deviation; wherein M represents the diameter of the inhibition zone, measured in millimeters (mm) beyond the initial well diameter of 6 mm.
# [2] = tested on: Bacillis subtilis (RCMB 010068)
# Method: as §1
# [3] = tested on: Streptococcus pneumoniae (RCMB 010011)
# Method: as §1
# [4] = tested on: Escherichia coli (RCMB 010054)
# Method: as §1
molecule,measurement,setting,value
C[C@@H]1[C@H](O)[C@@H](C)/C=C/C=C/C=C/C=C/C=C/C=C/C=C/[C@H](O[C@@H]2O[C@H](C)[C@@H](O)[C@H](N)[C@@H]2O)C[C@@H]2O[C@](O)(C[C@@H](O)C[C@@H](O)[C@H](O)CC[C@@H](O)C[C@@H](O)CC(=O)O[C@H]1C)C[C@H](O)[C@H]2C(=O)O [Amphotericin B],diameter of the inhibition zone (mean ± S.D.),[1],21.7 ± 1.5 mm
CC1(C)S[C@@H]2[C@H](NC(=O)[C@H](N)c3ccccc3)C(=O)N2[C@H]1C(=O)O [Ampicillin],diameter of the inhibition zone (mean ± S.D.),[2],31.3 ± 1.5 mm
same,diameter of the inhibition zone (mean ± S.D.),[3],21.0 ± 1.0 mm
Gentamicin,diameter of the inhibition zone (mean ± S.D.),[4],20.3 ± 0.58 mm

# Reference: US9428819B1, “Method for synthesizing noble metal nanoparticles using dead cancer cells” (KING SAUD UNIVERSITY, priority 2016, dated 2016)
